Measured values published in patent publication US20250186433A1, “ACSS2 INHIBITORS AND METHODS OF USE THEREOF” (EpiVario, Inc., priority 2017, published 2025).

Experiments:
[1] = biological target: T1, AACS (Homo sapiens, UniProt Q86V21); test: Acyl-CoA synthetases selectivity panel: AACS; type: biochemical; settings: human recombinant protein, substrate acetoacetyl, AMP readout by HPLC; read-out: HPLC based activity assays IC50 (UM) AACS
T1 construct: purchased Cusabio, China
T1 sequence (Q86V21 1-672): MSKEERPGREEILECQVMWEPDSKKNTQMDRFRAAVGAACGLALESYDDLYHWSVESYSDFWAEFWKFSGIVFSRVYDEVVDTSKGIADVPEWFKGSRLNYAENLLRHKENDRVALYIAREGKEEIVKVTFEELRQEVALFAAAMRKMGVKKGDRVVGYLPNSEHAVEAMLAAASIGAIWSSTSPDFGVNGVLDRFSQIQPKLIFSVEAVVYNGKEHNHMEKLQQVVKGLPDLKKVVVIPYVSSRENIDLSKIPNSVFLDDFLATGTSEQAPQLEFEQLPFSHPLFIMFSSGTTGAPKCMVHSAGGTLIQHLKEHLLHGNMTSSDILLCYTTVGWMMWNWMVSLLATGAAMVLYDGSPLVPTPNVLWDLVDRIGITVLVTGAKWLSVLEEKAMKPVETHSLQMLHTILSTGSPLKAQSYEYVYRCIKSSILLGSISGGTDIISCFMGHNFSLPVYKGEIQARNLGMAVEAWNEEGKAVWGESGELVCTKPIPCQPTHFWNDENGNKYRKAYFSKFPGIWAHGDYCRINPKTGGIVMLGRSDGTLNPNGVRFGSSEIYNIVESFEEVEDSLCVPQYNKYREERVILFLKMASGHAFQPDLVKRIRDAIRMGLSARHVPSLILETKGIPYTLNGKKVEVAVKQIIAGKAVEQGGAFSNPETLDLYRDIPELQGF
Excerpt: (§1) The biochemical assays for testing the selectivity of the compounds according to this invention, were done using human recombinant proteins (Cusabio, China). The readout of the assays was AMP levels, the […] of the reactions, by HPLC method. The acyl substrates (Sigma-Aldrich) of the assays were as followed: ACSS1/ACSS2—Acetate, AACS-Acetoacetyl, ACSF2—Octanoate and ACSL5—Palmitate. The protein in this panel include ACSS1, the closest homolog of ACSS2, in addition to representative short/medium/long chain acyl-CoA syntatases.

[2] = biological target: T2, ACSF2 (Homo sapiens, UniProt Q96CM8); test: Acyl-CoA synthetases selectivity panel: ACSF2; type: biochemical; settings: human recombinant protein, substrate octanoate, AMP readout by HPLC; read-out: HPLC based activity assays IC50 (UM) ACSF2
T2 construct: purchased Cusabio, China
T2 sequence (Q96CM8 42-615): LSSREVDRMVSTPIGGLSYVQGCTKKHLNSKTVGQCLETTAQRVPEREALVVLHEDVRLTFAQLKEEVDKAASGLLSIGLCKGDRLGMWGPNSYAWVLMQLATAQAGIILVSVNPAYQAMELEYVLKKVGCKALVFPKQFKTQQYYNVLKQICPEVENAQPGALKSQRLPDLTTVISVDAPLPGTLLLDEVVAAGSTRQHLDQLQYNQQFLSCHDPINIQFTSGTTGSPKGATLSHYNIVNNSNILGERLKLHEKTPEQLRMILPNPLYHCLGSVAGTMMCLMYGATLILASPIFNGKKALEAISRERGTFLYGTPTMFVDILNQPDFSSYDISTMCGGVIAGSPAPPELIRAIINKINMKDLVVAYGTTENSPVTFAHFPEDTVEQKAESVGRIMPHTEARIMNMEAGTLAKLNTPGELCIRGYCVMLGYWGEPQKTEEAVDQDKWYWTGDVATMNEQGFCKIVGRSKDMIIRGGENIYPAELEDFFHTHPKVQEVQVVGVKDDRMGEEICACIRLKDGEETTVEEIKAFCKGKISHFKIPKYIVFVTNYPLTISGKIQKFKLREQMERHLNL
Excerpt: as §1

Question: Which results are given for `COC(=O)c1cccc(N2N=C(C)C(C(=O)Nc3cccc(C(C)(F)F)c3)C2=O)c1` (centres unmarked) [compound 261, methyl 3-(4-((3-(1,1-difluoroethyl)phenyl)carbamoyl)-3-methyl-5-oxo-4,5-dihydro-1H-pyrazol-1-yl)benzoate]?
Answer: IC50 [1]: 24 µM; IC50 [2]: 46 µM
